Reference: US20180000768A1, “INTESTINAL FXR AGONISM ENHANCES GLP-1 SIGNALING TO RESTORE PANCREATIC BETA CELL FUNCTIONS” (Salk Institute for Biological Studies, priority 2015, published 2018)

Columns and labels:
[1] = system: Leptin-deficient ob/ob mice; test: metabolic phenotype and glucose homeostasis of treated ob/ob mice; format: in vivo, mouse; conditions: Fex 100 mg/kg/day, reduced treatment duration (2 weeks)
[2] = system: Leptin-deficient ob/ob mice; test: as above; format: in vivo, mouse
Protocol: Leptin-deficient ob/ob mice were purchased from Jackson laboratory (stock no. 000632). Each mouse consumed 100 mg per kg of body weight Fex (in corn oil) per day by oral gavage for 5 weeks. For in vivo analog study, each mouse consumed 50 mg per kg of body weight Fex-D (in corn oil) per day by oral gavage for 14 days. For GLP-1 receptor antagonist study, each mouse was daily treated with 100 μg per kg of body weight Exendin 9-39 amide (Abcam) via intraperitoneal injection for 2 weeks. For INT-777 study, each mouse was daily gavaged with 60 mg per kg of body weight INT-777 (in corn oil) for 5 weeks. For FGF15 study, each mouse was daily treated with 0.25 mg per kg of body weight FGF15 (in PBS with 0.1% BSA) via intravenous injection for 2 weeks. The sample sizes for all animal studies are indicated in each figure legend. All mice were housed in a specific pathogen-free facility with a 12-h light, 12-h dark cycle and given free access to food and water. All in vivo data were retrieved from 3 independent experimental animal cohorts. Core body temperature was measured with a clinical rectal thermometer (Thermalert model TH-5; Physitemp). For GTTs, 6-h fasted mice received 2 g of glucose per kg of body weight by oral gavage. Human insulin (Humilin, Eli Lilly) was used for insulin sensitivity test. Tail blood was drawn at indicated time intervals, and blood glucose level was measured with a One Touch Ultra glucometer (LifeScan). Body composition was measured with Echo MRI-100 body composition analyzer (Echo Medical Systems). All mice were randomly assigned to experimental groups for further analysis. No samples were excluded from the analysis.
Real-time metabolic analyses were conducted in a Comprehensive Lab Animal Monitoring System (Columbus Instruments). CO2 production, O2 consumption, RQ (relative rates of carbohydrate versus fat oxidation) and ambulatory counts were determined for 4 consecutive days and nights, with at least 24-h for adaptation before data recording.
To investigate the effect of Fex treatment in a diabetic mouse model, leptin-deficient obese mice (ob/ob) were subjected to daily treatment by oral gavage (100 mg/kg) for 5 weeks. […] Gene expression analysis confirmed the induction of UCP1 as well as a number of genes involved in β-oxidation, thermogenesis and oxidative phosphorylation (FIG. 1B-1D).

Human intestinal L cells = test: maintenance of ATP levels under bethanechol chloride; format: cell-based; conditions: L cells incubated with bethanechol chloride; DMSO-treated L cells 67%
Protocol: To further examine how this increase in respiratory capacity affects L cell bioenergetics, the maintenance of ATP levels under energetic demanding conditions was evaluated. Human intestinal L cells treated with DMSO or Fex were incubated with the muscarinic receptor agonist bethanechol chloride and residual ATP levels determined. […] Fex-treated L cells were able to maintain 83% of the initial ATP abundance whereas DMSO-treated L cells were able to maintain 67% (FIG. 7D). Thus, Fex enhances overall mitochondrial bioenergetics in enteroendocrinal L cells.

isolated islets = test: gene expression after direct ex vivo treatment of isolated islets; format: cell-based, mouse; conditions: 24 hours ex vivo, XL335 1 μM, Fex 1 μM
Protocol: Leptin-deficient ob/ob mice were treated daily with vehicle, Fex, or the analogue Fex-D (50 mg/kg) via P.O. for 14 days (A) Chemical structures of fexaramine and Fex-D (B) Schematic of the experimental design (C) Serum glucose levels (D) Glucose tolerance test (E) Insulin secretion in vivo (F) GLP-1 secretion in vivo (G) Heatmap showing hierarchal clustering of gene expression changes in islet induced by Fex (100 mg/kg, 4 wks) and FexD (50 mg/kg, 2 weeks) treatment in ob/ob mice (in vivo); by treatment of islets with XL335 (1 μM), Fex (1 μM), mFgf15 and hFgf19 (24 hours ex vivo); and mFgf15 (0.15 mg/kg, 2 weeks) and INT777 (Tgr5, 60 mg/kg, 4 weeks) treatment of ob/ob mice (in vivo). Gene expression was measured by RNA-Seq and changes are expressed as Z-score. (H) Ven diagram of changes in gene expression in pancreatic islets induced by FEX (100 mg/kg for 5 weeks) and FEX-D (50 mg/kg for 14 days). […] Data represent the mean±STD. Statistical analysis was performed with the Student's t test. *p<0.05, **p<0.01.
Next, primary islets were isolated from mice treated by Fex-D to compare gene expression changes.

[3] = system: pancreatic islets from ob/ob mice; test: Insulin secretion assay on isolated pancreatic islets (ex vivo); format: cell-based, mouse; conditions: islets from Fex-treated mice
Protocol: Mouse pancreatic islets were isolated from ob/ob mice according to a method used for rats traditionally. Briefly, 0.5 mg/ml collagenase P (Roche) diluted in HBSS buffer was injected through the common bile duct and the perfused pancreas was dissected and incubated in water bath with 37° C. for 21 minutes. Digested exocrine cells and intact islets were separated using Histopaque-1077 (SIGMA) with centrifugation by 900 g for 15 minutes and intact islets were picked up manually.
Insulin release from intact islets was monitored using batch incubation methods.
Isolated pancreatic islets were cultured over-night with […] supplemented with 10% (v/v) fetal bovine serum and 1% (v/v) Antibiotics-antimycotic solution, were pre-cultured at 37° C. for 30 minutes in Krebs Ringer bicarbonate buffer (KRBH) containing 129.4 mM NaCl, 3.7 mM KCl, 2.7 mM CaCl2, 1.3 mM KH2PO4, 1.3 mM MgSO4, 24.8 mM NaHCO3 (equilibrated with 5% CO2, 95% O2, pH7.4), 10 mM HEPES and 0.2% (v/v) BSA (fraction V) with 3 mM glucose. N ext, the pancreatic islets were incubated for 30 minutes KRBH buffer (500 μl/10 islets) with 3 mM or 20 mM glucose with or without 100 nM Exendin-4 to determine insulin secretion levels. At the end of the incubation period, islets were pelleted by centrifugation, and aliquots of the buffer were sampled. The amounts of insulin were determined by Rat/mouse Insulin ELISA KIT (Millipore) for mice islets.

[4] = Fex 100 mg/kg daily oral gavage, 5 weeks
[5] = Fex 100 mg/kg daily oral gavage, 5 weeks, after 4 hour fast

Compound: COC(=O)/C=C/c1cccc(N(Cc2ccc(-c3ccc(N(C)C)cc3)cc2)C(=O)C2CCCCC2)c1 [Fexaramine]
- fasting glucose levels [1]: little effect
- core temperature [2, 4]: increase
- glucose tolerance [2, 4]: improved
- gonadal fat (gWAT) tissue weight [2, 4]: modestly but significantly reduced
- hepatic gluconeogenesis/lipogenesis [2, 4]: remarkably suppressed
- insulin sensitivity [2, 4]: improved
- proportion of M2 macrophages in gWAT [2, 4]: increasing
- glucose levels [2, 5]: reduced
- insulin levels [2, 5]: reduced
- respiratory exchange ratio in the dark period ([2]; Fex 100 mg/kg daily oral gavage, 5 weeks, metabolic cages): increased
- time serum glucose levels remained low after cessation of treatment ([2]; monitored for 4 weeks after Fex treatment was stopped): 3 weeks
- residual ATP, % of the initial ATP abundance maintained (Human intestinal L cells): 83%
- transcriptional changes seen in islets in vivo with Fex and Fex-D (isolated islets): not observed
- ex vivo insulin secretion in response to 20 mM glucose [3]: dramatically increased
- insulin content in ex vivo islets [3]: significantly higher
